Test results as given in patent US20230087844A1, “USE OF N2-QUINCLINE OR ISOQUINOLINE SUBSTITUTED PURINE DERIVATIVES IN CANCER TREATMENT” (SHANGHAI HUAYU BIOTECHNOLOGY CO., LTD., priority 2020, published 2023).
Marks after values point to notes of the source that are not given here.

Legend:
FLT3 = FLT3 (Homo sapiens, UniProt P36888); assay: Inhibition of FLT3 phosphorylation; assay type: biochemical
Text: FLT3 is a class III receptor tyrosine kinase and plays an important role in hematopoiesis and lymphocyte development. […] Wang et al found over 60% of 82 leukemia cell lines were FLT3 positive (Wang Y et al., (2006) Journal of Experimental Hematology 14(3): 446-449). FLT3-internal tandem duplication (ITD) is the most commonly seen mutation in AML patients, with about 17-34% of AML patients carrying such a mutation (Jia H et al., (2018) Medical Laboratory Science and Clinics 19(5): 39). […] Thus, the compounds of the disclosure with high inhibitory effect on FLT3 function may be good candidates for leukemia treatment.

A549 = assay: MTT tumor cell proliferation, A549; assay type: cell-based; settings: Homo sapiens; A549, Lung cancer, 72 hour
Description: (§1) as an exemplary compound of formula (I), was tested for its inhibitory effect on tumor cell proliferation in a MTT assay.
(§2) Briefly, cells at the log phase were collected, suspended in the cell culture medium at 4*10^4/ml density, and plated in 96-well plates, 90 μl per well. The plates were kept in a 5% CO2 and 37° C. incubator for 2 hours, and then added with 100 μg/ml, 10 μg/ml, 1 μg/ml, 0.1 μg/ml, 0.01 μg/ml or 0.001 μg/ml Compound A, 4 replicates for each cell at each compound concentration. DMSO was used in the positive control group, and another negative group was also set. After 72 hour incubation in the same incubator, 20 μl 5 mg/ml MTT reagent was added to each well. After another 4 hour incubation, each well was added with 100 μl SDS and further incubated for 12 hours. Absorbance at 570 nm was read in a reader, and IC50 was calculated.

SGC-7901 = assay: MTT tumor cell proliferation, SGC-7901; assay type: cell-based; settings: Homo sapiens; SGC-7901, Gastric cancer, 72 hour
Description: as §1, §2

SNU-5 = assay: MTT tumor cell proliferation, SNU-5; assay type: cell-based; settings: Homo sapiens; SNU-5, Gastric cancer, 72 hour
Description: as §1, §2

HT-29 = assay: MTT tumor cell proliferation, HT-29; assay type: cell-based; settings: Homo sapiens; HT-29, Colon cancer, 72 hour
Description: as §1, §2

MDA-MB-231 = assay: MTT tumor cell proliferation, MDA-MB-231; assay type: cell-based; settings: Homo sapiens; MDA-MB-231, Breast cancer, 72 hour
Description: as §1, §2

Reh = assay: MTT tumor cell proliferation, Reh; assay type: cell-based; settings: Homo sapiens, Acute lymphocytic leukemia, 72 hour
Description: as §1, §2

[1] = system: S180 murine sarcoma cancer cells; assay: S180 sarcoma growth in mice; settings: for TGI: tumor weight, Day 8
Description: On Day 8, the mice were weighed and sacrificed, and the tumors were collected and weighed.
Tumor growth inhibition (TGI) was calculated by the following formula. Tumor growth inhibition=(average tumor weight in vehicle group-average tumor weight in administration group)/average tumor weight in vehicle group×100%

[2] = system: Ls-174t human colon cancer cells; assay: Ls-174t colon cancer xenograft in mice; assay type: in vivo, BALB/cA-nude mice; settings: for T/C: D14
Text: Mice were sacrificed on Day-14.

H69 = assay: Tumor cell death by MTT, H69; assay type: cell-based, human; settings: 20 nM
Description: The in vitro inhibitory effect of Compound A alone or in combination with a PARP inhibitor on tumor cell growth was tested using human small cell lung cancer (SCLC) cell lines, including H69 (ATCC® HTB-119™), H526 (ATCC® CRL-5811™) and H446 (TCHu196, National Collection of Authenticated Cell Cultures).
Briefly, the cells were seeded into a 96-well dish with RPMI-1640 (10-040-CV, Coming cellgro) containing 10% fetal bovine serum (10270-106, GIBCO), 1% penicillin and 1% streptomycin (BaSalMedia, S110JV), at an initial density of 3×10^3 cells per well ([…]), and cultured at a 37° C., 5% CO2 humidified incubator for 24 hours. Then, the culture media were added with Compound A (final concentration at 20 nM), olaparib (APEXBIO, A4154, a PARP inhibitor, final concentration at 10 μM), Compound A + olaparib (final concentrations at20 nM and 10 μM), or PBS (vehicle), respectively, and the cells were cultured for 48 hours. Then, cell viability was determined by MTT. The test was done in triplicate.
Cell death rate was calculated by the following formula.
Cell death rate=[1−(ODtest-ODvehicle)]×100%
Cell death rates were analyzed using student's t-test, and group differences were deemed statistically significant when the p-value was lower than 0.05. Zheng-Jun Jin's Q value was calculated using the formula Q=EA+B/(EA+EB-EA×EB) to assess the combined effect of Compound A and the PARP inhibitor, wherein EA+B, EA, and EB referred to the cell death rates caused by the combined treatment, Compound A treatment and PARP inhibitor treatment, respectively. A Q value higher than 1.15 meant a synergistic […] effect.
Another PARP inhibitor, rucaparib (APEXBIO, A4156), was tested alone or with Compound A for inhibitory effect on tumor cell growth, following the protocol of Example 9.

[3] = system: A549 human non-small cell lung cancer cells; assay: A549 non-small cell lung cancer xenograft in mice; settings: D0, 3, 6, 9; for T/C: D18
Description: Mice body weights and tumor sizes were measured 2 to 3 times a week. The tumor volume (V) was calculated as (length× width^2)/2. T/C (%) was calculated as (T-T0)/(C-C0)×100, wherein T and C represented the tumor volumes in the administration group and the vehicle group respectively at the end of the experiment, while T0 and C0 represented the tumor volumes in the administration group and the vehicle group respectively at the beginning of the experiment. And RTV was calculated as (Tumor volume at Day N/Tumor volume at Day 0). Mice were sacrificed on Day-14.
BALB/cA-nude mice, 5-6 weeks old, purchased from Shanghai SLAC Laboratory Animal Co., Ltd, were subcutaneously inoculated with A549 human non-small cell lung cancer cells (from ATCC).
Mice body weights and tumor sizes were measured 2 to 3 times a week. The tumor volume, T/C and RTV were calculated as described above. Mice were sacrificed on Day 18.

FLT3, sequence (P36888 27-993, species assumed): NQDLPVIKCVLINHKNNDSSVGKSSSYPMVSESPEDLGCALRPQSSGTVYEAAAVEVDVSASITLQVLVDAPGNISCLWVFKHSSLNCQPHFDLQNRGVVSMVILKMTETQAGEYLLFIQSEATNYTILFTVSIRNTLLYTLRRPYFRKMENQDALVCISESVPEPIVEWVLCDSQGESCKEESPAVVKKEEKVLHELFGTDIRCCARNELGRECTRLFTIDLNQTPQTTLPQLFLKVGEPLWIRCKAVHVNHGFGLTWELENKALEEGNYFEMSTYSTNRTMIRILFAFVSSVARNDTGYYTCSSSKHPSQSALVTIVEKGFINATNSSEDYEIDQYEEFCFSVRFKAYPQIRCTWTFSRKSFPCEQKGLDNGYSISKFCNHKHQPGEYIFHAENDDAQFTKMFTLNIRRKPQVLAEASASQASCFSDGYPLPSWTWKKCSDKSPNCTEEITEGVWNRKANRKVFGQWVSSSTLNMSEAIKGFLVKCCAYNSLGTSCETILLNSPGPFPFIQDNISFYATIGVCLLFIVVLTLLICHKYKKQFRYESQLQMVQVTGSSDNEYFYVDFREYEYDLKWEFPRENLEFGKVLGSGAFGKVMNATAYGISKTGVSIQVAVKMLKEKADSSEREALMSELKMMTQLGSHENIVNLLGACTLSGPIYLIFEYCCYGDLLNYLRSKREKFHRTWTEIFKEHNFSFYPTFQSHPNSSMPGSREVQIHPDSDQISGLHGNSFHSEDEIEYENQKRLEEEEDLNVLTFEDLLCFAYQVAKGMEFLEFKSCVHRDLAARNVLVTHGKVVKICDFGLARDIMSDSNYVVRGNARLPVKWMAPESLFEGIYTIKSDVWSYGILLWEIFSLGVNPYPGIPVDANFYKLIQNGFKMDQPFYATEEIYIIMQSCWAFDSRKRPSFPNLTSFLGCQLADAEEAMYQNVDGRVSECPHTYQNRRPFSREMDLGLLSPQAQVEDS

c1cnc2ccc(Nc3nc(NC4CC4)c4nc[nH]c4n3)cc2c1 [Compound A]
EC50 (FLT3): ~0.049 µM | IC50 (A549): 2.3 ± 0.8 µM | IC50 (SGC-7901): 3.8 ± 0.6 µM | IC50 (SNU-5): 12.1 ± 2 µM | IC50 (HT-29): 6.1 ± 0.2 µM | IC50 (MDA-MB-231): 3.5 ± 0.1 µM | IC50 (Reh): 0.8 ± 0.1 µM | Tumor weight on Day 8 ([1]; 60 mg/kg P.O., D1-4): 0.33 ± 0.13 g | TGI ([1]; 60 mg/kg P.O., D1-4): 82.8* % | Tumor weight on Day 8 ([1]; 80 mg/kg I.V., D1&D4): 1.10 ± 0.21 g | TGI ([1]; 80 mg/kg I.V., D1&D4): 42.7* % | Tumor weight on Day 8 ([1]; 80 mg/kg P.O., D1 &D4): 1.12 ± 0.34 g | TGI ([1]; 80 mg/kg P.O., D1 &D4): 41.7* % | Body weight (without tumor) D0 ([2]; 25 mg/kg P.O., D0, 2, 4, 8, 10): 23.7 g | Body weight (without tumor) D14 ([2]; 25 mg/kg P.O., D0, 2, 4, 8, 10): 17.7 g | RTV at D14 ([2]; 25 mg/kg P.O., D0, 2, 4, 8, 10): 13.91 ± 2.39 | Tumor volume D0 ([2]; 25 mg/kg P.O., D0, 2, 4, 8, 10): 145 ± 19 mm^3 | Tumor volume D14 ([2]; 25 mg/kg P.O., D0, 2, 4, 8, 10): 1997 ± 316 mm^3 | T/C ([2]; 25 mg/kg P.O., D0, 2, 4, 8, 10): 66% | Body weight (without tumor) D0 ([2]; 50 mg/kg P.O., D0, 3, 6, 9): 23.4 g | Body weight (without tumor) D14 ([2]; 50 mg/kg P.O., D0, 3, 6, 9): 16.2 g | RTV at D14 ([2]; 50 mg/kg P.O., D0, 3, 6, 9): 8.21 ± 3.55 | Tumor volume D0 ([2]; 50 mg/kg P.O., D0, 3, 6, 9): 147 ± 22 mm^3 | Tumor volume D14 ([2]; 50 mg/kg P.O., D0, 3, 6, 9): 1176 ± 450 mm^3 | T/C ([2]; 50 mg/kg P.O., D0, 3, 6, 9): 38.9* % | Body weight (without tumor) D0 ([2]; 50 mg/kg P.O., D0, 4, 8): 23.3 g | Body weight (without tumor) D14 ([2]; 50 mg/kg P.O., D0, 4, 8): 16.9 g | RTV at D14 ([2]; 50 mg/kg P.O., D0, 4, 8): 10.25 ± 2.39 | Tumor volume D0 ([2]; 50 mg/kg P.O., D0, 4, 8): 149 ± 29 mm^3 | Tumor volume D14 ([2]; 50 mg/kg P.O., D0, 4, 8): 1497 ± 282 mm^3 | T/C ([2]; 50 mg/kg P.O., D0, 4, 8): 48.6* % | Cell Death Rate/% 1 (H69; 48 hours, Table 10): 6.75% | Cell Death Rate/% 2 (H69; 48 hours, Table 10): 6.48% | Cell Death Rate/% 3 (H69; 48 hours, Table 10): 6.31% | Cell Death Rate/% mean (H69; 48 hours, Table 10): 6.51% | Cell Death Rate/% 1 (H69; Example 10, Table 11): 7.36% | Cell Death Rate/% 2 (H69; Example 10, Table 11): 7.65% | Cell Death Rate/% 3 (H69; Example 10, Table 11): 7.02% | Cell Death Rate/% mean (H69; Example 10, Table 11): 7.34% | RTV at D18 ([3]; 15 mg/kg P.O.): 18.67 ± 12.89 | Tumor volume D0 ([3]; 15 mg/kg P.O.): 118 ± 21 mm^3 | Tumor volume D18 ([3]; 15 mg/kg P.O.): 2135 ± 1279 mm^3 | T/C ([3]; 15 mg/kg P.O.): 70.8% | RTV at D18 ([3]; 30 mg/kg P.O.): 12.58 ± 4.38 | Tumor volume D0 ([3]; 30 mg/kg P.O.): 113 ± 19 mm^3 | Tumor volume D18 ([3]; 30 mg/kg P.O.): 1449 ± 608 mm^3 | T/C ([3]; 30 mg/kg P.O.): 47.7* % | RTV at D18 ([3]; 60 mg/kg P.O.): 9.15 ± 5.33 | Tumor volume D0 ([3]; 60 mg/kg P.O.): 110 ± 11 mm^3 | Tumor volume D18 ([3]; 60 mg/kg P.O.): 1039 ± 669 mm^3 | T/C ([3]; 60 mg/kg P.O.): 34.7* %
